The record followed here is publication PMC3397156 (Chembiochem, 2010).

The assay has as its target T1, PatD (Prochloron didemni, UniProt Q52QI6).
T1 sequence (Q52QI6 1-784): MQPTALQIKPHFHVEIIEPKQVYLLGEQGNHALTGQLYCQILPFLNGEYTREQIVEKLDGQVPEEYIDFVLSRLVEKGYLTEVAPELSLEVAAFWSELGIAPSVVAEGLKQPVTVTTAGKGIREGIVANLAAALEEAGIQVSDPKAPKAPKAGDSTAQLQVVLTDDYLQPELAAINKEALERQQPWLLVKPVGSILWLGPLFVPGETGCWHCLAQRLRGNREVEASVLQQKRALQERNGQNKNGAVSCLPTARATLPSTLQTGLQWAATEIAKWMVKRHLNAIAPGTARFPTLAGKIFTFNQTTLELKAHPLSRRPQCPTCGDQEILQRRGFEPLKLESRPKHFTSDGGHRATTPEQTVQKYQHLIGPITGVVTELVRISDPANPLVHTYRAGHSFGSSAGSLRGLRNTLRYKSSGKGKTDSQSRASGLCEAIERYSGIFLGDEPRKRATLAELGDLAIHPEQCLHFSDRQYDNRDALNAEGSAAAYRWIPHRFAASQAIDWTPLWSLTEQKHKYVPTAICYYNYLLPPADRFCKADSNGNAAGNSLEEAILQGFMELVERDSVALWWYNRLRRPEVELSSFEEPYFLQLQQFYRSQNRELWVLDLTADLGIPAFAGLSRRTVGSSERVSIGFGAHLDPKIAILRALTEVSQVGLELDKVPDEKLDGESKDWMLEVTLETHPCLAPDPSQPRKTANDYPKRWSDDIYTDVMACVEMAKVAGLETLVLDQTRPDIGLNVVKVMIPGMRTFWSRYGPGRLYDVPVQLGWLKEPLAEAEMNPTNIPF
Particulars: ATP 100 μM, TruE2 2 μM, PatD 0.6 μM, MgCl2, DTT, 30 min.

Regarding `Nc1ncnc2c1ncn2[C@@H]1O[C@H](COP(=O)(O)OP(=O)(O)OP(=O)(O)O)[C@@H](O)[C@H]1O` [ATP], the “HPLC of ATP hydrolysis to ADP” value is “ATP was shown to be hydrolyzed to ADP”.
